Data set [1] can be described thus: Chemical stability in PBS (HPLC). It counts as physicochemical. Particulars: HPLC at RT, 9:1 PBS/MeCN solution, 1.0-1.5 mM Tz, 254 nm; read-out: PBS stability t1/2. On the procedure: Ten tetrazines of formula (I) (Table 2) were tested in relation to chemical stability in PBS. The results are shown in Table 2 for the chemical half-life was measured by HPLC at RT, in 9:1 PBS/MeCN solution, using 1.0-1.5 mM Tz (a); based on average peak intensities of the corresponding Tz and the corresponding oxadiazoles (the degradation product), at 254 nm.

A short description of data set [2]: Click kinetics, stopped-flow measurement of tetrazine ligation with equatorial TCO-PEG4. Particulars: PBS (10mM), 37 °C, TCO 1 mM, tetrazine 100 µM, absorbance at 535 nm. On the procedure:
Nine tetrazines of formula (I) (Table 1) were clicked with equatorial TCO-PEG4 (rel-(1R-4E-pR)-cyclooct-4-en-1-yl (2-(2-(2-(2-hydroxyethoxy)ethoxy)ethoxy)ethyl)carbamate).
Stopped-flow measurements were performed using an SX20-LED stopped-flow spectrophotometer (Applied Photophysics) equipped with a 535 nm LED (optical pathlength 10 mm, full width half-maximum 34 nm) to monitor the characteristic tetrazine visible light absorbance (520-540 nm).
A stock solution of eqTCO-PEG4 in DMSO was prepared at an approximate concentration above 100 mM. The exact concentration was determined by absorbance titration with 3,6-di-2-pyridyl-1,2,4,5-tetrazine. Stock solutions of tetrazines in DMSO were prepared at a concentration of 10 mM. These initial stock solutions were diluted into PBS (10mM) before stopped-flow analysis to reach a final TCO concentration of 1 mM and a tetrazine concentration of 100 µM. The reagent syringes were loaded with solutions of the Tz and eqTCO-PEG4, and the instrument was primed. Subsequent data were collected in triplicate to sextuplicate for each tetrazine. Reactions were conducted at 37 °C and recorded automatically at the time of acquisition. Data sets were analyzed by fitting an exponential decay using Prism 6 (Graphpad) to calculate the observed pseudo-first-order rate constants that were converted into second-order rate constants by dividing with the concentration of the excess TCO compound. Table 1: second rate order constant (M-1s-1) for the ligation between nine tetrazines and equatorial TCO-PEG4 (rel-(1R-4E-pR)-cyclooct-4-en-1-yl (2-(2-(2-(2-hydroxyethoxy)ethoxy)ethoxy)ethyl)carbamate).

For the compound `COc1cccc(-c2nnc(C[N+](C)(C)c3ccccc3)nn2)c1.[Br-]` [Compound 19, N-((6-(3-methoxyphenyl)-1,2,4,5-tetrazin-3-yl)methyl)-N,N-dimethylbenzenaminium bromide], the half-life in data set [1] was found to be 48.2 ± 0.5 min. Moreover, the “second order rate constant” value in data set [2] came to 790 M⁻¹ s⁻¹.

Regarding `C[N+](C)(Cc1nnc(-c2ccc(F)cc2)nn1)c1ccccc1.[Br-]` [Compound 20, N-((6-(4-fluorophenyl)-1,2,4,5-tetrazin-3-yl)methyl)-N,N-dimethylbenzenaminium bromide], in data set [1], the half-life stood at 47.8 ± 3.5 min. Besides, the “second order rate constant” value in data set [2] came to 580 M⁻¹ s⁻¹.

On to `C[N+](C)(Cc1nnc(-c2ccccc2)nn1)c1ccccc1.[Br-]` [Compound 21, N,N-dimethyl-N-((6-phenyl-1,2,4,5-tetrazin-3-yl)methyl)benzenaminium bromide], for which the half-life in data set [1] is 58 ± 0.5 min. The “second order rate constant” value in data set [2] was 650 M⁻¹ s⁻¹.

Take `Cc1ccc(-c2nnc(C[N+](C)(C)c3ccccc3)nn2)cc1.[Br-]` [Compound 22, N,N-dimethyl-N-((6-(p-tolyl)-1,2,4,5-tetrazin-3-yl)methyl)benzenaminium bromide]: in data set [1], the half-life worked out at 107 ± 1 min. The “second order rate constant” value in data set [2] was 480 M⁻¹ s⁻¹.

Take `COc1ccc(-c2nnc(C[N+](C)(C)c3ccccc3)nn2)cc1.[Br-]` [Compound 23, N-((6-(4-methoxyphenyl)-1,2,4,5-tetrazin-3-yl)methyl)-N,N-dimethylbenzenaminium bromide]: the half-life in data set [1] came to 154 ± 41 min. Further, the “second order rate constant” value in data set [2] came to 370 M⁻¹ s⁻¹.

Consider `C[N+](C)(Cc1nnc(-c2ccc(O)cc2)nn1)c1ccccc1.[Br-]` [Compound 24, N-((6-(4-hydroxyphenyl)-1,2,4,5-tetrazin-3-yl)methyl)-N,N-dimethylbenzenaminium bromide], for which, in data set [1], the half-life worked out at 297 ± 6 min.

`Cc1ccc([N+](C)(C)Cc2nnc(-c3ccccc3)nn2)cc1.[Br-]` [Compound 25, N,N,4-trimethyl-N-((6-phenyl-1,2,4,5-tetrazin-3-yl)methyl)benzenaminium bromide]: the half-life in data set [1] was 68.8 ± 6 min. In addition, the “second order rate constant” value in data set [2] turned out to be 620 M⁻¹ s⁻¹.

Take `COc1ccc([N+](C)(C)Cc2nnc(-c3ccccc3)nn2)cc1.[Br-]` [Compound 26, 4-methoxy-N,N-dimethyl-N-((6-phenyl-1,2,4,5-tetrazin-3-yl)methyl)benzenaminium bromide]: in data set [1], the half-life turned out to be 112 ± 21.4 min. Further, the “second order rate constant” value in data set [2] came out at 670 M⁻¹ s⁻¹.

Regarding `C[N+](C)(Cc1nnc(-c2ccccc2)nn1)c1ccc(O)cc1.[Br-]` [Compound 27, 4-hydroxy-N,N-dimethyl-N-((6-phenyl-1,2,4,5-tetrazin-3-yl)methyl)benzenaminium bromide], the half-life in data set [1] worked out at 311 ± 69 min. For the same compound, in data set [2], the “second order rate constant” value came out at 620 M⁻¹ s⁻¹.

As to `COc1ccc(-c2nnc(C[N+](C)(C)c3ccc(OC)cc3)nn2)cc1.[Br-]` [Compound 29, 4-methoxy-N-((6-(4-methoxyphenyl)-1,2,4,5-tetrazin-3-yl)methyl)-N,N-dimethylbenzenaminium bromide], the half-life in data set [1] is 561.9 ± 0.75 min. Moreover, the “second order rate constant” value in data set [2] was determined as 340 M⁻¹ s⁻¹.

(Values after EP4603107A1, “BIOORTHOGONAL, ANILINIUM BASED CLEAVABLE TETRAZINES” (University of Copenhagen, priority 2024, dated 2025).)
